The source of these data is PMC9732821, “Neurotrophic Activity and Its Modulation by Zinc Ion of a Dimeric Peptide Mimicking the Brain-Derived Neurotrophic Factor N-Terminal Region” (ACS Chemical Neuroscience, 2022).

Series [1] relates to human neural progenitor cell line (RenVM). Put plainly: neuronal differentiation of Ren cells (β3-tubulin positive fraction). Type of series: cell-based. The following applies: 1 μM d-bdnf, four days; BDNF 50 ng/mL comparator. Here is the method: Figure 3 Neurite outgrowth stimulated by BDNF and its mimetic peptide ligands. (A) Top, left: schematic timeline of the experiment. SH-SY5Y cells were differentiated for 5 days (d1–5) by addition of retinoic acid (RA, gray bar) in the cell medium. Then, cells were stimulated for 3 days (d6–8) with 150 ng/mL BDNF or different concentrations of its peptide-mimetics (black bar) or left untreated (white bar). On the right and bottom, representative images of the differentiated cells at the end of each treatment. Scale bar 50 μm. (B) Scatter dot plot of the total neurite length, normalized to the number of cell bodies present in each analyzed field. […] For each field, an average of 50–200 cells were counted. […] (C) Representative fluorescence images of DIV3 Ren cells stained with DAPI (blue) and β3-tubulin (green) after differentiation with the standard medium (CTRL), or with the standard medium supplemented with 50 ng/mL BDNF or with 1 μM d-bdnf. […] (D) Column plot of the mean ± SD fraction of β3-tubulin (green) positive on the total cells, counted in the DAPI channel of the analyzed fields (nfields) (CTRL: nfields = 10 and total ncells = 4756; BDNF: nfields = 11 and total ncells = 4330; d-bdnf: nfields = 10 and total ncells = 5619 cells; ****p < 0.0001, *p < 0.05 according to the one-way ANOVA with Dunnett’s multiple comparison test). […]

Series [2] is described as follows: potentiometric titration, protonation constants. Format: physicochemical. The following applies: 298 K. Here is the method: Potentiometric measurements were carried out to give insight into the coordination environment of Zn^2+ bound to the d-bdnf peptide (Figure S5). […] The four protonation equilibria of the aspartic and glutamic residues partly overlap but, in agreement with the literature data, the aspartic β-carboxylic group is more acidic than glutamic γ-carboxylic one.[48] The potentiometric titrations were carried out exploring 0.9:1 and 2.2:1 metal to ligand molar ratio. […] The peptide forms two complex species, [ZnLH] and [ZnL]. The first one is the predominant at pH = 6, and the calculated stability constant value [logK(111) = logβ(111) – logK(011) = 5.71] indicates the involvement of three nitrogen atoms in the metal coordination environment. The [ZnL] species display a stability constant value, logβ = 7.15, higher than that of protonated species indicative of the involvement of a further nitrogen atom in the metal binding mode. In this complex species, Zn^2+ is bound to four nitrogen atoms with the involvement of two amino and two imidazole (2NH2,2NIm coordination mode). […]
Potentiometric measurements
Potentiometric titrations were carried out on a Titrando 905 automatic, using a combined glass-Ag/AgCl electrode (Metrohm, Switzerland). Solutions (2.0 mL) were thermostated at 298 K and in argon atmosphere. The ionic strength was 0.1 M in KNO3. A 0.1 M solution of KOH was used to titrate solutions containing either the peptides only (protonation constants) or the peptides with Zn2+ (complexation constants). The peptide concentrations range used was 1-2 mM in both series of experiments. At least three independent titrations were performed. Starting pH value was adjusted to 2.4 by adding HNO3 0.2 M. The titrations were carried out up to pH 8.5. Metal ion/ligand ratios between 0.9:1 and 2.2:1 were employed. To avoid systematic errors and verify reproducibility, the EMF values of each experiment were recorded at different time intervals. The data were analyzed by […]
using HYPERQUAD 2003 program 17. […]

The mark [3] stands for this setting: species LH 12 (NH2), 0.1 M KNO3.
Setting [4] is: species LH 13 (His), 0.1 M KNO3.
Setting [5] is: species LH 14 (His), 0.1 M KNO3.
The mark [6] stands for this setting: species LH 15 (COO), 0.1 M KNO3.
Setting [7] is: species LH 16 (COO), 0.1 M KNO3.
[8] abbreviates: species LH 17 (COO), 0.1 M KNO3.
The mark [9] stands for this setting: species LH 18 (COO), 0.1 M KNO3.

For the substance “HSDPARRGELSVC-C-VSLEGRRAPDSH (disulfide) [d-bdnf]”, the “neuronal cell fraction (β3-tubulin positive)” value in series [1] is listed as “significant increase of detected neurons with respect to untreated cells, in a similar way to BDNF”. Besides, the “logk (stepwise protonation, pK)” value stood at 7.59 in series [2] (species LH 11 (NH2), 0.1 M KNO3); 7.16 in series [2] (setting [3]); 5.96 in series [2] (setting [4]); 5.32 in series [2] (setting [5]); 4.66 in series [2] (setting [6]); 4.20 in series [2] (setting [7]). Moreover, the results for the “logk (stepwise protonation, pK)” value in series [2] (setting [8]) and in series [2] (setting [9]) were 3.55 and 3.31, respectively. Moreover, the “log (protonation constant)” value in series [2] (species LH 11 (NH2), 0.1 M KNO3, at least three titrations) is listed as 7.59; in series [2] (setting [3]) it was 14.75; in series [2] (setting [4]), 20.71; in series [2] (setting [5]), 26.03; in series [2] (setting [6]), 30.69; in series [2] (setting [7]), 34.90. Moreover, the “log (protonation constant)” value turned out to be 38.44 in series [2] (setting [8]) and 41.75 in series [2] (setting [9]).
